Data on 6 molecules can be found in patent US12436156B2, “Methods of determining pH and calcium or chloride concentration in samples” (The University of Chicago, priority 2018, dated 2025).

Assay type in all cases: cell-based, human
For experiment [1], the system named is lysosomes in HDF cells. The experiment in a line: 2-IM upon addition of lysosomal proton pump and ion channel blocker. Particulars: ChloropHoreLy labelled, 500 nM bafilomycin A1 or 300 μM NPPB, 45 min. The method, then: Lysosomal pH and chloride measurements. Fibroblast cells are pulsed with 2 μM of I^mLy, ChloropHore or ChloropHoreLy for 1 h, chased for 9 h (30 min pulse and 1 h chase for J774. A1, BHK-21 and T47D cells) and then washed with 1×PBS and subjected for imaging.
2-IM upon addition of lysosomal proton pump and ion channel blocker. Upon lysosome labeling, final concentration of 500 nM bafilomycinA1 and 300 μM of 5-nitro-2-(3-phenylpropyl-amino) benzoic acid (NPPB) were added to cells and incubated for 45 min. Cells was then washed with PBS and imaged in Hank's Balanced Salt Solution (HBSS) containing the respective blocker compounds.
(§1) Image analysis for pH and sensors. Images were analyzed with ImageJ/Fiji 2.0.0-rc-54/1.51h. pH and chloride measurements are performed as described previously. To generate a density plot to represent lysosomal populations, the individual D/A (Y-axis) versus the corresponding R/G (X-axis) values was first plotted for each lysosome that was obtained for a given fibroblast sample comprising ˜60 cells and ˜600 lysosomes. Density plots were generated using 2D Kernel Density plot on Origin 2018 SR1 b9.5.1.195 (OriginLab, USA). […] To normalize between experiments done on different days, the lysosomal pH and Cl− of a sample of normal HDF cells was always measured as well, the density plot of which served as the reference. […]

For experiment [2], the system named is lysosomes in HDF cells. The experiment in a line: 2-IM in pharmacologically induced cell culture models for NP-A/B and NP-C. The note with it: HDF cells from a healthy individual; 65 μM AH or 20 μM U18666A, 24 h. The procedure: Niemann Pick type A/B and C models were prepared according to the previous reported method. Cells were incubated with 65 μM of the acid sphingomyelinase (ASM) inhibitor amitriptyline (AH) and 20 μM of the NPC1 inhibitor U18666A for 24 h to create a NP-A/B and NP-C models respectively. The cells are pulsed with 2 μM of ChloropHoreLY and either 65 μM AH or 20 μM U18666A for 1 h, chased with either 65 μM AH or 20 μM U18666A for 9 h and then washed with 1×PBS and imaged.
Image analysis for pH and sensors. Images were analyzed with ImageJ/Fiji 2.0.0-rc-54/1.51h. pH and chloride measurements are performed as described previously. To generate a density plot to represent lysosomal populations, the individual D/A (Y-axis) versus the corresponding R/G (X-axis) values was first plotted for each lysosome that was obtained for a given fibroblast sample comprising ˜60 cells and ˜600 lysosomes. Density plots were generated using 2D Kernel Density plot on Origin 2018 SR1 b9.5.1.195 (OriginLab, USA). This converted the individual scatter points into a population matrix as a probability density function. The density plot is then pseudo colored to represent high density in red (values close to 1) and low density in blue (values closer to 0). Those points with <10% probability on the plot were discarded. For normalization between days, the point of highest density (value =1) of normal HDF cells was designated as the center of the plot with x,y coordinates (1,1). To normalize between experiments done on different days, the lysosomal pH and Cl− of a sample of normal HDF cells was always measured as well, the density plot of which served as the reference. All density plots acquired on the same day with the same settings were thus normalized to the HDF cell density plots to enable comparison of data across different days.

For experiment [3], the system named is lysosomes of NP-C patient fibroblasts. The experiment in a line: Lysosomal population rescue using β-CD in NP-C patient fibroblasts (2-IM). The note with it: NP-C patient samples mutated in NPC1 or NPC2, 50 μM, 24 h. The procedure: (§2) Lysosomal population rescue using ASM and β-CD. Recombinant human acid sphingomyelinase was incubated with NP-A/B patient cells according to the previous method. Primary human fibroblasts derived from NP-A/B patients were maintained in DMEM medium with 1% FBS for 24 h. The medium was then changed to DMEM with 1% FBS containing 0.2% BSA and 5 μg of rhASM. After 24 h, the cells are pulsed with 2 μM of ChloropHoreLy for 1 h, chased for 9 h and then washed with 1×PBS and imaged. Primary human fibroblasts from NP-C patient were incubated with 50 μM of o-Hydroxypropyl-β-cyclodextrin (β-CD) for 24 h. The cells are pulsed with 2 μM of ChloropHoreLy and 50 μM of β-CD for 1 h, chased with 50 μM of β-CD for 9 h and then washed with 1×PBS and imaged.
as §1, with “lysosomes.” for “lysosomes. Density plots were generated using 2D Kernel Density plot on Origin 2018 SR1 b9.5.1.195 (OriginLab, USA).”

Experiment [4] concerns lysosomes of NP-A and NP-B patient fibroblasts. The experiment in a line: Lysosomal population rescue using ASM in NP-A/B patient fibroblasts (2-IM). The note with it: 5 μg rhASM, 24 h. The procedure: as §2
as §1, with “lysosomes.” for “lysosomes. Density plots were generated using 2D Kernel Density plot on Origin 2018 SR1 b9.5.1.195 (OriginLab, USA).”

Structures can show the parent of a compound that is named as a salt.

For `O=C(O)c1cc([N+](=O)[O-])ccc1NCCCc1ccccc1` [5-nitro-2-(3-phenylpropylamino) benzoic acid], in the experiment on lysosomes in HDF cells [1], the “high Cl-, high acidity lysosome population (2-IM profile)” value is recorded as “lost”.

`CN(C)CCC=C1c2ccccc2CCc2ccccc21` [amitriptyline hydrochloride]: in the experiment on lysosomes in HDF cells [2], the “high chloride, high acidity lysosome population (2-IM profile)” value (shortened to “high chloride”) is recorded as “depletion” and the “lysosome population in 2-IM profile” value is listed as “monodisperse”.

For `CCN(CC)CCO[C@H]1CC[C@@]2(C)C(=CC[C@@H]3[C@@H]2CC[C@]2(C)C(=O)CC[C@@H]32)C1` [U18666A], in the experiment with lysosomes in HDF cells [2], the “high chloride” value is given as “depletion” and the “lysosome population in 2-IM profile” value was “monodisperse”.

Consider o-2-hydroxypropyl-β-cyclodextrin [RCD], for which, in experiment [3], the “lysosomes with higher lumenal Cl- and H+ content (2-IM profile)” value is “appearance”; the “monodispersity of the 2-IM profile” value was “loss of monodispersity”.

Turning to `CO/C1=C\C(C)=C\[C@@H](C)[C@@H](O)[C@@H](C)C/C(C)=C/C=C/[C@H](OC)[C@@H]([C@@H](C)[C@@H](O)[C@H](C)[C@@]2(O)C[C@@H](O)[C@H](C)[C@@H](C(C)C)O2)OC1=O` [bafilomycin Al], the “high Cl-, high acidity lysosome population (2-IM profile)” value in the experiment on lysosomes in HDF cells [1] is on record as “lost”.

B1: rhASM: Recombinant human acid sphingomyelinase, enzyme replacement therapy for NP-A/B (protein, UniProt P17405 47-631, looked up)
Sphingomyelin …: LALSDSRVLWAPAEAHPLSPQGHPARLHRIVPRLRDVFGWGNLTCPICKGLFTAINLGLKKEPNVARVGSVAIKLCNLLKIAPPAVCQSIVHLFEDDMVEVWRRSVLSPSEACGLLLGSTCGHWDIFSSWNISLPTVPKPPPKPPSPPAPGAPVSRILFLTDLHWDHDYLEGTDPDCADPLCCRRGSGLPPASRPGAGYWGEYSKCDLPLRTLESLLSGLGPAGPFDMVYWTGDIPAHDVWHQTRQDQLRALTTVTALVRKFLGPVPVYPAVGNHESTPVNSFPPPFIEGNHSSRWLYEAMAKAWEPWLPAEALRTLRIGGFYALSPYPGLRLISLNMNFCSRENFWLLINSTDPAGQLQWLVGELQAAEDRGDKVHIIGHIPPGHCLKSWSWNYYRIVARYENTLAAQFFGHTHVDEFEVFYDEETLSRPLAVAFLAPSATTYIGLNPGYRVYQIDGNYSGSSHVVLDHETYILNLTQANIPGAIPHWQLLYRARETYGLPNTLPTAWHNLVYRMRGDMQLFQTFWFLYHKGHPPSEPCGTPCRLATLCAQLSARADSPALCRHLMPDGSLPEAQSLWPRPLFC
Take B1: the “high chloride” value in experiment [4] is “reemergence”.
